We go through 17 compounds from patent US11976083B2, “Inhibitors of peptidylarginine deiminases” (Gilead Sciences, Inc., priority 2020, dated 2024).

This assay addresses T1, human PAD4 (Homo sapiens, UniProt Q9UM07).
T1 construct: human PAD4 (NM_012387), A2-P663, was PCR amplified; His-SUMO (N, cleaved yes); made in house; host or cells: E. coli BL21(DE3)
Briefly: In vitro PAD4 BAEE biochemical assay. To be noted: BAEE substrate 3 mM, 5 nM PAD4, 2 mM calcium chloride; geometric mean of multiple experiments. Summed up: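 Assay was run at 25 °C using 3 mM BAEE and 5 nM human PAD4 after a 30 min compound preincubation; ammonia produced over 2 h was quantified by OPA-derived fluorescence. Full inhibition was defined by 50 µM BB-Cl-Amidine, and IC50 came from variable-slope nonlinear regression.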

SMILES strings stand for the structures.

T1 sequence (Q9UM07 2-663): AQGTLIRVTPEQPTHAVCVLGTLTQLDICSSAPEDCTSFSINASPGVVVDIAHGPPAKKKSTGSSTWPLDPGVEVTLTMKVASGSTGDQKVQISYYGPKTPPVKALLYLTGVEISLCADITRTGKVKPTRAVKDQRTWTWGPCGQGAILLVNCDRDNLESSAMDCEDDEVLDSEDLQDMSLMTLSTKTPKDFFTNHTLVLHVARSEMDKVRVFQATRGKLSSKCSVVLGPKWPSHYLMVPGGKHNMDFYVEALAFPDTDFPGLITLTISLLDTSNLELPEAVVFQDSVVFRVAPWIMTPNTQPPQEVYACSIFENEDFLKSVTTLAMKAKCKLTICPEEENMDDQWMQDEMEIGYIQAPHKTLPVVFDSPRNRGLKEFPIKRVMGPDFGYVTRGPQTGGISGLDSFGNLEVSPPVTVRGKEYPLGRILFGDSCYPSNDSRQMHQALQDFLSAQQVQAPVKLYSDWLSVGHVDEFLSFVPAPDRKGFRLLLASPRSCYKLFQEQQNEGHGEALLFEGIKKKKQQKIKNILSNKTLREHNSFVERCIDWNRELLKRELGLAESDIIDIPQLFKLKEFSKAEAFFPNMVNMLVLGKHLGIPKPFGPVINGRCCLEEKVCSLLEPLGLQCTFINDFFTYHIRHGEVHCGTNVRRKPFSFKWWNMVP

As to `COc1cc(C(=O)N2C[C@H](N)[C@@H]3CC[C@H]2C3)cc2nc(-c3cc4ccc5nc4n3CCCCCC[C@](c3ccccn3)(C(F)F)C(=O)N[C@@H]5C)n(C)c12` [Example 889, (8~{R},11~{R})-17-[5-[(1~{S},4~{R},5~{R})-4-amino-2-azabicyclo[3.2.1]octane-2-carbonyl]-7-methoxy-1-methyl-benzimidazol-2-yl]-8-(difluoromethyl)-11-methyl-8-(2-pyridyl)-1,10,19-triazatricyclo [10.5.2.0^{15,18}]nonadeca-12(19),13,15(18),16-tetraen-9-one], the IC50 is 54 nM.

On to `COc1cc(C(=O)N2CCC[C@@H](N)C2)cc2nc(-c3cc4ccc5nc4n3CCCCCC[C@@H]3CCN(C3=O)[C@@H]5C)n(C)c12` [Example 112, (2~{R},6~{R})-14-[5-[(3~{R})-3-aminopiperidine-1-carbonyl]-7-methoxy-1-methyl-benzimidazol-2-yl]-2-methyl-3,13,19-triazatetracyclo[11.5.2.1^{3,6}.0^{16,20}] henicosa-1(19),14,16(20),17-tetraen-21-one], for which the IC50 turned out to be 81 nM.

Regarding `COc1cc(C(=O)N2CCC[C@@H](N)C2)cc2nc(-c3cc4ccc5nc4n3C[C@H]3C[C@@H]3CCCC(C)(C)C(=O)N[C@@H]5C)n(C)c12` [Example 292, (3~{S),5~{S},12~{R})-18-[5-[(3~{R})-3-aminopiperidine-1-carbonyl]-7-methoxy-1-methyl-benzimidazol-2-yl]-9,9,12-trimethyl-1,11,20-triazatetracyclo[11.5.2.0^{3,5}.0^{16,19}] icosa-13(20),14,16(19),17-tetraen-10-one], the IC50 was determined as 53 nM.

Regarding `COc1cc(C(=O)N2CC[C@@H](OC)[C@@H](N)C2)cc2nc(-c3cc4ccc5nc4n3CCCCCc3ncccc3C(=O)N[C@@H]5C)n(C)c12` [Example 409, (2~{R})-17-[5-[(3~{S},4~{R})-3-amino-4-methoxy-piperidine-1-carbonyl]-7-methoxy-1-methyl-benzimidazol-2-yl]-2-methyl-3,9,16,22-tetrazatetracyclo[14.5.2.0^{5,10}.0^{19,23}] tricosa-1(22),5(10),6,8,17,19(23),20-heptaen-4-one], the IC50 came out at 83 nM.

In the case of `C[C@@H]1[C@H](N)CCCN1C(=O)c1cc(F)c2c(c1)nc(-c1cc3ccc4nc3n1CC(F)(F)CCC[C@@H]1C[C@H]1C(=O)N[C@@H]4C)n2[C@H]1C[C@@H]1F` [Example 835, (2~{R},5~{R},7~{R})-14-[5-[(2~{R},3~{R})-3-amino-2-methyl-piperidine-1-carbonyl]-7-fluoro-1-[(1~{S},2~{S})-2-fluorocyclopropyl]benzimidazol-2-yl]-11,11-difluoro-2-methyl-3,13,19-triazatetracyclo[11.5.2.0^ {5,7}.0^{16,20}] icosa-1(19),14,16(20), 17-tetraen-4-one], the IC50 is 16 nM.

As to `COc1cc(C(=O)N2CCC[C@@H](N)C2)cc2nc(-c3cc4ccc5cc4n3CCC/C=C/CC(C)(C)C(=O)N[C@@H]5C)n(C)c12` [Example 273, (5˜{E},11˜{R})-17-[5-[(3˜{R})-3-aminopiperidine-1-carbonyl]-7-methoxy-1-methyl-benzimidazol-2-yl]-8,8,11-trimethyl-1,10-diazatricyclo[10.5.2.0^{15,18}]nonadeca-5,12(19),13,15(18),16-pentaen-9-one], the IC50 was determined as 68 nM.

With `C[C@H]1NC(=O)[C@H]2[C@H](CCCCCn3c(-c4nc5cc(C(=O)N[C@H]6CNCC[C@@H]6F)c(F)cc5n4C)cc4ccc1nc43)C2(F)F` [Example 383, 2-[(2˜{R},5˜{R},7˜{S})-6,6-difluoro-2-methyl-4-oxo-3,13,19-triazatetracyclo[11.5.2.0^{5,7}.0^{16,20}]icosa-1(19),14,16(20),17-tetraen-14-yl]-6-fluoro-˜{N}-[(3˜{S},4˜{S})-4-fluoro-3-piperidyl]-1-methyl-benzimidazole-5-carboxamide], the IC50 came to 28 nM.

Take `C[C@H]1NS(=O)(=O)CCCC/C=C/Cn2c(-c3nc4cc(C(=O)N[C@H]5CNCC[C@@H]5F)c(F)cc4n3C)cc3ccc1nc32` [Example 497, 6-fluoro-~{N}-[(3~ {S},4~{S})-4-fluoro-3-piperidyl]-1-methyl-2-[(3~{E},11~{R})-11-methyl-9,9-dioxo-9$1^6-thia-1,10,19-triazatricyclo[10.5.2.0^{15,18}]nonadeca-3,12(19),13,15 (18),16-pentaen-17-yl]benzimidazole-5-carboxamide]: the IC50 was 54 nM.

Take `COc1cc(C(=O)N2CCC[C@@H](N)C2)cc2nc(-c3cc4ccc5nc4n3C[C@H]3C[C@H]3COC[C@H](C)C(=O)N[C@@H]5C)n(C)c12` (single isomer, unassigned) [Example 313, (3˜{S},5˜{R},9˜{S},12˜{R})-18-[5-[(3˜{R})-3-aminopiperidine-1-carbonyl]-7-methoxy-1-methyl-benzimidazol-2-yl]-9,12-dimethyl-7-oxa-1,11,20-triazatetracyclo[11.5.2.0^{3,5}.0^{16,19}]icosa-13(20),14,16(19),17-tetraen-10-one]: the IC50 amounted to 85 nM.

For `COc1cc(C(=O)N2CC[C@@H](OC)[C@@H](N)C2)cc2nc(-c3cc4ccc5nc4n3CCCCCC[C@@H]3C[C@H]3C(=O)N[C@@H]5C)n(C)c12` [Example 586, (2~{R},5~{R},7~{R})-15-[5-(3~{S),4~{R})-3-[amino-4-methoxy-piperidine-1-carbonyl]-7-methoxy-1-methyl-benzimidazol-2-yl]-2-methyl-3,14,20-triazatetracyclo[12.5.2.0^ {5,7}.0^{17,21}] henicosa-1(20),15,17(21), 18-tetraen-4-one], the IC50 was 88 nM.

In the case of `COc1cc(C(=O)N2[C@H]3CC[C@@H]2[C@H](N)[C@H](OC)C3)cc2nc(-c3cc4ccc5nc4n3CC(F)(F)CCC[C@@H]3C[C@H]3C(=O)N[C@@H]5C)n(C)c12` [Example 726, (2~{R},5~{R},7~{R})-14-[5-[(1~{R},2~{S},3~{R}, 5~{S})-2-amino-3-methoxy-8-azabicyclo[3.2.1]octane-8-carbonyl]-7-methoxy-1-methyl-benzimidazol-2-yl]-11,11-difluoro-2-methyl-3,13,19-triazatetracyclo[11.5.2.0^ {5,7}.0^{16,20}] icosa-1(19),14,16(20), 17-tetraen-4-one], the IC50 is 23 nM.

On to `C[C@H]1NC(=O)c2ccc(C(F)(F)F)nc2CCCCCn2c(-c3nc4cc(C(=O)N5C[C@H](N)[C@@H]6CC[C@H]5C6)cc(F)c4n3C3CC3)cc3ccc1nc32` [Example 474, (2~{R})-17-[5-[(1~{S},4~{R},5~{R})-4-amino-2-azabicyclo[3.2.1]octane-2-carbonyl]-1-cyclopropyl-7-fluoro-benzimidazol-2-yl]-2-methyl-8-(trifluoromethyl)-3,9,16,22-tetrazatetracyclo[14.5.2.0^{5,10}.0^{19,23}] tricosa-1(22),5(10),6,8,17,19(23),20-heptaen-4-one], for which the IC50 was 49 nM.

For `C[C@H]1NC(=O)[C@@H]2C[C@H]2CCCC(F)(F)Cn2c(-c3nc4cc(C(=O)N5C[C@H](N)[C@@H]6CC[C@H]5C6)cc(Cl)c4n3C3CC3)cc3ccc1nc32` [Example 471, (2~{R},5~{R},7~{R})-14-[5-[(1~{S),4~{R},5~{R})-4-amino-2-azabicyclo[3.2.1]octane-2-carbonyl]-7-chloro-1-cyclopropyl-benzimidazol-2-yl]-11,11-difluoro-2-methyl-3,13,19-triazatetracyclo[11.5.2.0^{5,7}.0^{16,20}] icosa-1(18),14,16,19-tetraen-4-one], the IC50 worked out at 44 nM.

In the case of `COc1cc(C(=O)N[C@H]2CNCC[C@@H]2F)cc2nc(-c3cc4ccc5nc4n3CCCOC[C@@H]3C[C@H]3C(=O)N[C@@H]5C)n(C)c12` [Example 616, ~{N}-[(3~{S},4~{S})-4-fluoro-3-piperidyl]-7-methoxy-1-methyl-2-[(2~{R},5~{R},7~{R})-2-methyl-4-oxo-9-oxa-3,13,19-triazatetracyclo[11.5.2.0^ {5,7}.0^{16,20}]icosa-1(19),14,16(20), 17-tetraen-14-yl] benzimidazole-5-carboxamide], the IC50 is 71 nM.

Regarding `COc1cc(C(=O)N2CC[C@@H](OCC(F)F)[C@@H](N)C2)cc2nc(-c3cc4ccc5nc4n3CCCCCCC(C)(C)C(=O)N[C@@H]5C)n(C)c12` [Example 14, (11~{R})-17-[5-[(3~{S),4~{R})-3-amino-4-(2,2-difluoroethoxy)piperidine-1-carbonyl]-7-methoxy-1-methyl-benzimidazol-2-yl]-8,8,11-trimethyl-1,10,19-triazatricyclo[10.5.2.0^{15,18}]nonadeca-12(19),13,15(18),16-tetraen-9-one], the half-inhibitory concentration (IC50) turned out to be 121 nM.

In the case of `C[C@H]1NC(=O)C(C)(C)CCCCCCn2c(-c3nc4cc(C(=O)N[C@H]5CNCC[C@@H]5F)c(F)cc4n3C3CCC3)cc3ccc1nc32` [Example 420, 1-cyclobutyl-6-fluoro-˜{N}-[(3˜{S},4˜{S})-4-fluoro-3-piperidyl]-2-[(11˜{R})-8,8,11-trimethyl-9-oxo-1,10,19-triazatricyclo[10.5.2.0^{15,18}]nonadeca-12(19),13,15(18),16-tetraen-17-yl]benzimidazole-5-carboxamide], the IC50 stood at 184 nM.

Take `C[C@H]1NC(=O)[C@@H]2C[C@H]2CCCCCn2c(-c3nc4cc(C(=O)N[C@H]5CNCC[C@@H]5F)c(F)cc4n3CCOC(F)(F)F)cc3ccc1nc32` [Example 599, 6-fluoro-~{N}-[(3~{S},4~{S})-4-fluoro-3-piperidyl]-2-[(2~{R}, 5~{R},7~{R})-2-methyl-4-oxo-3,13,19-triazatetracyclo[11.5.2.0^ {5,7}.0^{16,20}]icosa-1(19),14,16(20),17-tetraen-14-yl]-1-[2-(trifluoromethoxy)ethyl]benzimidazole-5-carboxamide]: the IC50 amounted to 67 nM.

The term IC50 denotes the concentration needed to halve the response being measured.
